Bounds are passed on as bounds.

Sequence of ERK2 kinase (P28482 whole entry): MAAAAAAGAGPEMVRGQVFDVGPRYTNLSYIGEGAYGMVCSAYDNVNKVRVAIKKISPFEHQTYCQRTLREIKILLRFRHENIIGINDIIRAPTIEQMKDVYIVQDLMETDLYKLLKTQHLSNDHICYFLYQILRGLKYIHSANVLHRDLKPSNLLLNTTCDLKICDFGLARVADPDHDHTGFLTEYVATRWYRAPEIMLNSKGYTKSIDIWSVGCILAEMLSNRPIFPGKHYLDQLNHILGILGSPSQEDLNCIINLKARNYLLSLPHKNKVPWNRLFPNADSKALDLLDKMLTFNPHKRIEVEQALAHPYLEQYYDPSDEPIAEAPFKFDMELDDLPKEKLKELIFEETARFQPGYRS

The first experiment addresses ERK2 kinase (Homo sapiens (Human), UniProt P28482). Description: In vitro enzyme activity assay, ERK2 kinase (Z'-LYTE). To be noted: class symbols; read-out: ERK2 IC50. It is filed as biochemical. As to the method:
Half inhibitory activity of the compounds of the invention against ERK2 kinase (IC50 value) was determined in this Example.
• Enzyme: extracellular signal-regulated kinase ERK2 kinase (PV3595, Invitrogen) • Kit: Z′-LYTE® Protein Kinase Assay Kit-Ser/Thr 3 Peptide (PV3176, Invitrogen) • Kit components: The substrate Z′-LYTE™ Ser/Thr 3 Peptide (PV3200) • The phosphorylation substrate Z′-LYTE™ Ser/Thr 3 Phospho-peptide (PV3215) • 5× kinase buffer: 250 mM HEPES (pH 7.5), 50 mM MgCl2, • 5 mM EGTA, 0.05% BRIJ-35 (PV3189, Invitrogen) • ATP (PV3227, Invitrogen) • Development Reagent A (PV3295, Invitrogen) • Development Buffer (P3127, Invitrogen) • Stop Reagent (P3094, Invitrogen) • Microplate reader: The multil-mode microplate reader PerkinElmer EnVision® • Microplate: black shallow 384-well microplate (6008269, PerkinElmer) (2). Assay Protocol:
The substrate Z′-LYTE™ Ser/Thr 3 Peptide, the phosphorylation substrate Z′-LYTE™ Ser/Thr 3 Phospho-peptide, 1× kinase buffer (5× kinase buffer was diluted with ultra pure water by five times), ATP, Development Reagent A, Development Buffer, Stop Reagent were balanced to room temperature for use. The screening concentrations for detecting the effect of the compounds of the invention on the ERK kinase activity were seven 3-fold serial dilutions starting from 1 μM (from 0.2 μM for the positive drug control) using 4% DMSO as co-solvent. 5 μL enzyme system (50 mM HEPES pH 7.5, 1 mM EGTA, 10 mM MgCl2, 0.01% Brij-35, 4 uM substrate, 0.8 ng/μL enzyme), 2.5 μL Compound, 2.5 μL 400 μM ATP were added into 384 well microplate, followed by incubation at room temperature for 60 min in the dark. After the reaction was completed, 5 μl the developing agent (Development Reagent A) diluted with the developing buffer (Development Buffer) was added to all reaction wells, followed by incubation at the room temperature for 60 min in the dark. 5 μL the terminating agent was added to each well to terminate the reaction. The fluorescence was determined using the multil-mode microplate reader PerkinElmer EnVision® (excitation wavelength 400 nm, emission wavelength 460 nm and 528 nm).
The inhibition rate of each well was calculated from 100% phosphorylation substrate well and 0% phosphorylation substrate well using the data analysis method below: phosphorylation %=1−{(emission rate×F100%−C100%)/[C0%−C100%+emission rate×(F100%−F0%)]}×100 inhibition %=100×(1−phosphorylation % of the test compound well/phosphorylation % of the 0% inhibition control) • wherein: • emission rate=fluorescence emission of the sample at 445 nm/fluorescence emission of the sample at 520 nm • F100%=the average fluorescence emission of the control well of 100% phosphorylation substrate at 520 nm • F0%=the average fluorescence emission of the control well of 0% phosphorylation substrate at 520 nm • C100%=the average fluorescence emission of the control well of 100% phosphorylation substrate at 445 nm • C0%=the average fluorescence emission of the control well of 0% phosphorylation substrate at 445 nm
Tests were carried out in duplicate. IC50 values were calculated from the inhibition of the kinase by the test compounds at a range of different concentrations.
`Cc1ncccc1CC(=O)N1CCc2cc(-c3ccnc(Nc4ccnn4C)c3)cc(F)c21` [Example P45, 1-(7-fluoro-5-(2-((1-methyl-1H-pyrazol-5-yl)amino)pyridin-4-yl)indolin-1-yl)-2-(2-methylpyridin-3-yl)ethan-1-one]: the 50% inhibitory concentration (IC50) was no more than 10 nM.

Regarding `Cn1nccc1Nc1nccc(-c2cc(F)c3c(c2)CCN3C(=O)Cc2ccc(F)cc2Cl)n1` [Example P36, 2-(2-chloro-4-fluorophenyl)-1-(7-fluoro-5-(2-((1-methyl-1H-pyrazol-5-yl)amino)pyrimidin-4-yl)indolin-1-yl)ethan-1-one], the IC50 was in the range of 10 to 100 nM.

Take `O=C(Cc1cccnc1Cl)N1CCc2cc(-c3ccnc(NC4CCOCC4)n3)cc(F)c21` [Example P5, 2-(2-chloropyridin-3-yl)-1-(7-fluoro-5-(2-((tetrahydro-2H-pyran-4-yl)amino)pyrimidin-4-yl)indolin-1-yl)ethan-1-one]: the IC50 is no more than 10 nM.

`Cn1nccc1Nc1nccc(-c2cc(F)c3c(c2)CCN3C(=O)Cc2ccc(F)cc2F)n1` [Example P12, 2-(2,4-difluorophenyl)-1-(7-fluoro-5-(2-((1-methyl-1H-pyrazol-5-yl)amino)pyrimidin-4-yl)indolin-1-yl)ethan-1-one]: the IC50 is 10 to 100 nM.

Consider `O=C(Cc1cccnc1Cl)N1CCc2cc(-c3ccnc(N[C@H]4C[C@@H](O)C4)c3)cc(F)c21` [Example P40], for which the IC50 fell in the range of 10 to 100 nM.

`Cn1nccc1Nc1nccc(-c2cc(F)c3c(c2)CCN3C(=O)Cc2ccccc2C#N)n1` [Example P30, 2-(2-(7-fluoro-5-(2-((1-methyl-1H-pyrazol-5-yl)amino)pyrimidin-4-yl)indolin-1-yl)-2-oxoethyl)benzonitrile]: the IC50 lay within 10 to 100 nM.

Consider `O=C(Cc1cccnc1Cl)N1CCc2cc(-c3ccnc(NC4CC4)c3)cc(F)c21` [Example P61, 2-(2-chloropyridin-3-yl)-1-(5-(2-(cyclopropylamino)pyridin-4-yl)-7-fluoroindolin-1-yl)ethan-1-one], for which the IC50 lay in the range of 10 to 100 nM.

`Cn1nccc1Nc1nccc(-c2cc(F)c3c(c2)CCN3C(=O)Cc2ccc(Cl)cc2)n1` [Example P19, 2-(4-chlorophenyl)-1-(7-fluoro-5-(2-((1-methyl-1H-pyrazol-5-yl)amino)pyrimidin-4-yl)indolin-1-yl)ethan-1-one]: the IC50 was 100 to 1000 nM.

`O=C(Cc1cccnc1Cl)N1CCc2cc(-c3ccnc(NC4CCC(O)CC4)n3)cc(F)c21` (centres unmarked) [Example P3, 2-(2-chloropyridin-3-yl)-1-(7-fluoro-5-(2-((4-hydroxylcyclohexyl)amino)pyrimidin-4-yl)indolin-1-yl)ethan-1-one]: the IC50 lay in the range of 10 to 100 nM.

As for `Cn1nccc1Nc1nccc(-c2cc(F)c3c(c2)CCN3C(=O)Cc2cccc(F)c2Cl)n1` [Example P54, 2-(2-chloro-3-fluorophenyl)-1-(7-fluoro-5-(2-((1-methyl-1H-pyrazol-5-yl)amino)pyrimidin-4-yl)indolin-1-yl)ethan-1-one], the IC50 is 10 to 100 nM.

On to `Cn1nccc1Nc1cc(-c2cc(F)c3c(c2)CCN3C(=O)Cc2cccc(Cl)n2)ccn1` [Example P29, 2-(6-chloropyridin-2-yl)-1-(7-fluoro-5-(2-((1-methyl-1H-pyrazol-5-yl)amino)pyridin-4-yl)indolin-1-yl)ethan-1-one], for which the concentration for half-maximal inhibition (IC50) was in the range of 10 to 100 nM.

For `Cn1nccc1Nc1nccc(-c2cc(F)c3c(c2)CCN3C(=O)Cc2cc(F)ccc2F)n1` [Example P39, 2-(2,5-difluorophenyl)-1-(7-fluoro-5-(2-((1-methyl-1H-pyrazol-5-yl)amino)pyrimidin-4-yl)indolin-1-yl)ethan-1-one], the IC50 is 100 to 1000 nM.

Regarding `COCC1Cc2cc(-c3ccnc(Nc4ccnn4C)c3)cc(F)c2N1C(=O)Cc1cccnc1Cl` (centres unmarked) [Example P58, 2-(2-chloropyridin-3-yl)-1-(7-fluoro-2-(methoxymethyl)-5-(2-((1-methyl-1H-pyrazol-5-yl)amino)pyridin-4-yl)indolin-1-yl)ethan-1-one], the IC50 was no more than 10 nM.

With `CC(CCO)Nc1nccc(-c2cc(F)c3c(c2)CCN3C(=O)Cc2cccnc2Cl)n1` (centres unmarked) [Example P7, 2-(2-chloropyridin-3-yl)-1-(7-fluoro-5-(2-((4-hydroxylbutan-2-yl)amino)pyrimidin-4-yl)indolin-1-yl)ethan-1-one], the IC50 lay within 10 to 100 nM.

In the case of `Cn1nccc1Nc1nccc(-c2cc(F)c3c(c2)CCN3C(=O)Cc2ccccc2F)n1` [Example P17, 1-(7-fluoro-5-(2-((1-methyl-1H-pyrazol-5-yl)amino)pyrimidin-4-yl)indolin-1-yl)-2-(2-fluorophenyl)ethan-1-one], the IC50 is 10 to 100 nM.

Turning to `CC1Cc2cc(-c3ccnc(Nc4ccnn4C)n3)cc(F)c2N1C(=O)Cc1cccnc1Cl` (centres unmarked) [Example P32, 2-(2-chloropyridin-3-yl)-1-(7-fluoro-2-methyl-5-(2-((1-methyl-1H-pyrazol-5-yl)amino)pyrimidin-4-yl)indolin-1-yl)ethan-1-one], the IC50 was no more than 10 nM.

`Cn1nccc1Nc1cc(-c2cc(F)c3c(c2)CCN3C(=O)CCc2cccnc2Cl)ccn1` [Example P55, 3-(2-chloropyridin-3-yl)-1-(7-fluoro-5-(2-((1-methyl-1H-pyrazol-5-yl)amino)pyridin-4-yl)indolin-1-yl)propan-1-one]: the IC50 lay within 10 to 100 nM.

In the case of `Cn1nccc1Nc1nccc(-c2cc(F)c3c(c2)CCN3C(=O)Cc2cnccc2Cl)n1` [Example P56, 2-(4-chloropyridin-3-yl)-1-(7-fluoro-5-(2-((1-methyl-1H-pyrazol-5-yl)amino)pyrimidin-4-yl)indolin-1-yl)ethan-1-one], the IC50 fell in the range of 10 to 100 nM.

For `CC(CO)Nc1cc(-c2cc(F)c3c(c2)CCN3C(=O)Cc2cccnc2Cl)ccn1` (centres unmarked) [Example P8, 2-(2-chloropyridin-3-yl)-1-(7-fluoro-5-(2-((1-hydroxylprop-2-yl)amino)pyridin-4-yl)indolin-1-yl)ethan-1-one], the IC50 lay within 100 to 1000 nM.

For `Cn1nccc1Nc1nccc(-c2cc(F)c3c(c2)CCN3C(=O)Cc2cc(Cl)ccc2F)n1` [Example P34, 2-(5-chloro-2-fluorophenyl)-1-(7-fluoro-5-(2-((1-methyl-1H-pyrazol-5-yl)amino)pyrimidin-4-yl)indolin-1-yl)ethan-1-one], the IC50 lay within 10 to 100 nM.

As for `Cc1cnc(Nc2ccnn2C)nc1-c1cc(F)c2c(c1)CCN2C(=O)Cc1cccnc1Cl` [Example P47, 2-(2-chloropyridin-3-yl)-1-(7-fluoro-5-(5-methyl-2-((1-methyl-1H-pyrazol-5-yl)amino)pyrimidin-4-yl)indolin-1-yl)ethan-1-one], the IC50 is no more than 10 nM.

Regarding `O=C(Cc1cccnc1Cl)N1CCc2cc(-c3ccnc(NC4CC(O)C4)c3)cc(F)c21` (racemic) [Example P53, 2-(2-chloropyridin-3-yl)-1-(7-fluoro-5-(2-((3-hydroxylcyclobutyl)amino)pyridin-4-yl)indolin-1-yl)ethan-1-one], the IC50 lay within 100 to 1000 nM.

As to `Cc1cnc(Nc2ccnn2C)nc1-c1cc(F)c2c(c1)CC(C)N2C(=O)Cc1cccnc1Cl` (centres unmarked) [Example P48, 2-(2-chloropyridin-3-yl)-1-(7-fluoro-2-methyl-5-(5-methyl-2-((1-methyl-1H-pyrazol-5-yl)amino)pyrimidin-4-yl)indolin-1-yl)ethan-1-one], the IC50 was no more than 10 nM.

On to `COCC1Cc2cc(-c3nc(Nc4ccnn4C)ncc3C)cc(F)c2N1C(=O)Cc1cccnc1Cl` (centres unmarked) [Example P49, 2-(2-chloropyridin-3-yl)-1-(7-fluoro-2-(methoxymethyl)-5-(5-methyl-2-((1-methyl-1H-pyrazol-5-yl)amino)pyrimidin-4-yl)indolin-1-yl)ethan-1-one], for which the IC50 is no more than 10 nM.

Staying with this experiment, now noted: read-out: IC50 against ERK2 kinase.
On to `C[C@H]1Cc2cc(-c3ccnc(Nc4ccnn4C)c3)cc(F)c2N1C(=O)Cc1cccnc1Cl` [Example P42], for which the IC50 was found to be 2.7 nM.

With `Cn1nccc1Nc1cc(-c2cc(F)c3c(c2)CCN3C(=O)C(O)c2cccnc2Cl)ccn1` (centres unmarked) [Example P60, 2-(2-chloropyridin-3-yl)-1-(7-fluoro-5-(2-((1-methyl-1H-pyrazol-5-yl)amino)pyridin-4-yl)indolin-1-yl)-2-hydroxylethan-1-one], the IC50 was found to be 10 nM.

Source of the values: patent US11465984B2, “Compound having ERK kinase inhibitory activity and use thereof” (SHANGHAI HAIHE PHARMACEUTICAL CO., LTD., priority 2017, dated 2022).
